From patent publication US20220218719A1, “MATRIX COMPOSITION COMPRISING (S)-5-BENZYL-N-(5-METHYL-4-OXO-2,3,4,5-TETRAHYDROBENZO[B][1,4]OXAZEPIN-3-YL)-4H-1,2,4-TRIAZOLE-3-CARBOXAMIDE” (GLAXOSMITHKLINE INTELLECTUAL PROPERTY DEVELOPMENT LIMITED, priority 2019, published 2022)
Read-outs that look alike come from different tables or passages of the source.

Assays:
[1] = Early clinical studies: PK profile of Compound 1 given as immediate release (IR) formulation; assay type: in vivo; settings: human, plasma, oral
Procedure: The formulations used in early clinical studies included a 0.1 mg/mL oral solution to support doses up to 5 mg; active-pharmaceutical-ingredient (API) in HPMC capsules for doses between 5 mg to 120 mg; and roller-compacted IR tablets of 10, 20 and 30 mg strength.
The pharmacokinetic (PK) profile of Compound 1 when administered as an immediate release (IR) formulation was characterized by rapid absorption and elimination with time to maximum concentration (Tmax) of approximately 2 hours post-dose. […] A majority of the systemic exposure to GSK2982772 was associated with the shorter half-life of 2-3 hours.

[2] = plasma/blood, 120 mg dose of IR formulation; cited from earlier work

## CN1C(=O)[C@@H](NC(=O)c2nnc(Cc3ccccc3)[nH]2)COc2ccccc21 [Compound 1, (S)-5-benzyl-N-(5-methyl-4-oxo-2,3,4,5-tetrahydrobenzo[b][1,4]oxazepin-3-yl)-4H-1,2,4-triazole-3-carboxamide]
[1]; phase until approximately 12 hours post-dose, read-out: elimination half-life (t1/2)
  half-life: 2 to 3 h
[1]; post-dose, read-out: time to maximum concentration (Tmax)
  Tmax: ~2 h
[1]; read-out: slower terminal phase t1/2
  half-life: 5 to 6 h
[2]
  t1/2: 2 to 3 h
